# Results reported in patent US9593084B2 (Parion Sciences, Inc., priority 2012, dated 2017).
# Marks after values point to notes of the source that are not given here.
# Molecular target: T1, epithelial sodium channel (Canis lupus familiaris, UniProt A0A8I3MKE6+A0A8I3Q679+Q95165)
# T1 construct: endogenous in cells; host or cells: primary canine bronchial epithelial cells cultured at air-liquid interface
# T1 sequence (A0A8I3Q679 1-649): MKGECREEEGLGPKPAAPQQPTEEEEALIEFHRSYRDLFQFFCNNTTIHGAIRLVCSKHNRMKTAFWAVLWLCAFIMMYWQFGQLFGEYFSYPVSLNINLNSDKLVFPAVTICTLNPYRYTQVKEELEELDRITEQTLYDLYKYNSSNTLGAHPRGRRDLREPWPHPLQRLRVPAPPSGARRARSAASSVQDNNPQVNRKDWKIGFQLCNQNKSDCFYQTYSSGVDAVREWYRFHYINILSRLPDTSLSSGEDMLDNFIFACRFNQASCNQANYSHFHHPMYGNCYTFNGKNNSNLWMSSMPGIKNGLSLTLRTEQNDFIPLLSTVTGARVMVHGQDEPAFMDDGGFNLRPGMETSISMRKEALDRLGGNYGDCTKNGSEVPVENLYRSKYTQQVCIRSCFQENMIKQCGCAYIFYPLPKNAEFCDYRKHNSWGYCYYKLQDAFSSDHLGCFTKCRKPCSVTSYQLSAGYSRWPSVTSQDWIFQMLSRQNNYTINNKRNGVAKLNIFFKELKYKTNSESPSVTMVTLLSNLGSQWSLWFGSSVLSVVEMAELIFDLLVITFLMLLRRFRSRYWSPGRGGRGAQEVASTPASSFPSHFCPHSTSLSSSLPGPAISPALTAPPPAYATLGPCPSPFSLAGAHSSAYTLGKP
# T1 sequence (Q95165 1-641): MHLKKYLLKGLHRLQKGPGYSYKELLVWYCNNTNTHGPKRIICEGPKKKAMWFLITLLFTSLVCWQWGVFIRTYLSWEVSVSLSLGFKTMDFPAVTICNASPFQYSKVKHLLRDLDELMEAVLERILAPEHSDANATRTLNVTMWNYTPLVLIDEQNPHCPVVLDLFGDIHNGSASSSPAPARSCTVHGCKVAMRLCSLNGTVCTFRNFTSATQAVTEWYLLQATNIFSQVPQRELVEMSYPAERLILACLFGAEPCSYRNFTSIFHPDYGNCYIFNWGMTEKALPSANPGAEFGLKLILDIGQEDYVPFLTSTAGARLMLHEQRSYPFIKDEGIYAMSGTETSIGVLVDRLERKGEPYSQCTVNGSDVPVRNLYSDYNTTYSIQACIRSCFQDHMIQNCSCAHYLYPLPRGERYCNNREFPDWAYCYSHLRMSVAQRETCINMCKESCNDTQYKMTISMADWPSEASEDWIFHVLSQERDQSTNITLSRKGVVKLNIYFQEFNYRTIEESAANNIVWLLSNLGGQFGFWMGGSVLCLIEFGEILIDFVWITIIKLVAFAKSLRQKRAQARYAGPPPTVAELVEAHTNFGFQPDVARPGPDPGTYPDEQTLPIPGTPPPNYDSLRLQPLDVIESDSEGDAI
# T1 sequence (A0A8I3MKE6 1-646): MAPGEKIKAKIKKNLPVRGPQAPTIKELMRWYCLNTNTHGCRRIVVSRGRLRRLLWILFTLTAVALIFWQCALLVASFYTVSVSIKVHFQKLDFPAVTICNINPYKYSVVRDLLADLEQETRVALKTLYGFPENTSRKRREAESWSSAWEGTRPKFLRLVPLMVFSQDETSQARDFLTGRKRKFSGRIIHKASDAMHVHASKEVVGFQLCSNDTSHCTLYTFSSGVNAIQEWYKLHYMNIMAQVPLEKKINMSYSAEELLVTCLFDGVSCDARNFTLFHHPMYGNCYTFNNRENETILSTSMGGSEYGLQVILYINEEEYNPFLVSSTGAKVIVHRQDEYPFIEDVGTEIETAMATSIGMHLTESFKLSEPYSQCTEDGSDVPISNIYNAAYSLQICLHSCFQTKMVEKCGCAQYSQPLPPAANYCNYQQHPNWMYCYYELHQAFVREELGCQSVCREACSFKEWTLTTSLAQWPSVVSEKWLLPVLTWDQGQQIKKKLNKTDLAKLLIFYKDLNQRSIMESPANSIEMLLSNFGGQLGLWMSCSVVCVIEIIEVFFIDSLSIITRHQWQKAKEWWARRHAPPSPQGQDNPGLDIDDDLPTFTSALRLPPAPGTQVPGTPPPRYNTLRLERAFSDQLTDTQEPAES
# Experiment: Inhibition of short-circuit current (ISC) in airway epithelial monolayers in Ussing chambers
# Type: cell-based, canine
# Settings: canine bronchial epithelial cells, short-circuit current; read-out: Potency of Sodium Channel Blockade IC50
# Description: One assay used to assess mechanism of action and/or potency of the compounds of the present invention involves the determination of lumenal drug inhibition of airway epithelial sodium currents measured under short circuit current (ISC) using airway epithelial monolayers mounted in Using chambers. Cells obtained from freshly excised human, dog, sheep or rodent airways are seeded onto porous 0.4 micron Snapwelff Inserts (CoStar), cultured at air-liquid interface (ALI) conditions in hormonally defined media, and assayed for sodium transport activity (ISC) while bathed in Krebs Bicarbonate Ringer (KBR) in Using chambers. All test drug additions are to the lumenal bath with half-log dose addition protocols (from 1×10^−11 M to 3×10^−5 M), and the cumulative change in ISC (inhibition) recorded. All drugs are prepared in dimethyl sulfoxide as stock solutions at a concentration of 1×10^−2 M and stored at −20° C. […] After the maximal concentration ([…]) is administered, the lumenal bath is exchanged three times with fresh drug-free KBR solution, and the resultant ISC measured after each wash for approximately 5 minutes in duration. Reversibility is defined as the percent return to the baseline value for sodium current after the third wash. All data from the voltage clamps are collected via a computer interface and analyzed off-line.
# Dose-effect relationships for all compounds are considered and analyzed by the Prism 3.0 program.
row,Compound,IC50 [µM]
1,"CN(C)CCCc1ccc(NC(=O)[C@@H](N)Cc2ccc3cc(CCCCNC(=N)NC(=O)c4nc(Cl)c(N)nc4N)ccc3c2)cc1 [Compound 103, (S)-3,5-diamino-N—(N-(4-(6-(2-amino-3-(4-(3-(dimethylamino)propyl)phenylamino)-3-oxopropyl)naphthalen-2-yl)butyl)carbamimidoyl)-6-chloropyrazine-2-carboxamide]",0.0179
2,"CCCCCCN(CCCc1ccc(NC(=O)[C@@H](N)Cc2ccc(CCCCNC(=N)NC(=O)c3nc(Cl)c(N)nc3N)c3ccccc23)cc1)C[C@H](O)[C@@H](O)[C@H](O)[C@H](O)CO [Compound 28, 3,5-diamino-N—(N-(4-(4-((S)-2-amino-3-(4-(3-(hexyl((2S,3R,4R,5R)-2,3,4,5,6-pentahydroxyhexyl)amino)propyl)phenylamino)-3-oxopropyl)naphthalen-1-yl)butyl)carbamimidoyl)-6-chloropyrazine-2-carboxamide]",0.0074
3,"N=C(NCCCCc1ccc(C[C@H](N)C(=O)Nc2ccc(CCCNC[C@H](O)[C@@H](O)[C@H](O)[C@H](O)CO)cc2)c2ccccc12)NC(=O)c1nc(Cl)c(N)nc1N [Compound 38, 3,5-diamino-N—(N-(4-(4-((S)-2-amino-3-oxo-3-(4-(3-((2S,3R,4R,5R)-2,3,4,5,6-pentahydroxyhexylamino)propyl)phenylamino)propyl)naphthalen-1-yl)butyl)carbamimidoyl)-6-chloropyrazine-2-carboxamide]",0.0254
4,"CN(C)CCCc1ccc(NC(=O)[C@@H](N)Cc2ccc(CCCCNC(=N)NC(=O)c3nc(Cl)c(N)nc3N)c3c2CCCC3)cc1 [Compound 135, (S)-3,5-diamino-N—(N-(4-(4-(2-amino-3-(4-(3-(dimethylamino)propyl)phenylamino)-3-oxopropyl)-5,6,7,8-tetrahydronaphthalen-1-yl)butyl)carbamimidoyl)-6-chloropyrazine-2-carboxamide]",0.0052
5,"CN(C)CCCc1ccc(NC(=O)[C@@H](N)Cc2ccc(CCCCNC(=N)NC(=O)c3nc(Cl)c(N)nc3N)c3ccccc23)cc1 [Compound 23, (S)-3,5-diamino-N—(N-(4-(4-(2-amino-3-(4-(3-(dimethylamino)propyl)phenylamino)-3-oxopropyl)naphthalen-1-yl)butyl)carbamimidoyl)-6-chloropyrazine-2-carboxamide]",0.0207
6,"N=C(NCCCCc1ccc2cc(C[C@H](N)C(=O)O)ccc2c1)NC(=O)c1nc(Cl)c(N)nc1N [Compound 80, (S)-2-amino-3-(6-(4-(3-(3,5-diamino-6-chloropyrazine-2-carbonyl)guanidino)butyl)naphthalen-2-yl)propanoic acid]",0.0194
7,"N=C(NCCCCc1ccc(C[C@H](N)C(=O)O)c2c1CCCC2)NC(=O)c1nc(Cl)c(N)nc1N [Compound 139, (S)-2-amino-3-(4-(4-(3-(3,5-diamino-6-chloropyrazine-2-carbonyl)guanidino)butyl)-5,6,7,8-tetrahydronaphthalen-1-yl)propanoic acid]",0.0737
8,"N=C(NCCCCc1ccc(C[C@H](N)C(=O)O)c2ccccc12)NC(=O)c1nc(Cl)c(N)nc1N [Compound 16, (S)-2-amino-3-(4-(4-(3-(3,5-diamino-6-chloropyrazine-2-carbonyl)guanidino)butyl)naphthalen-1-yl)propanoic acid]",0.0796
9,"N=C(NCCCCc1ccc(C[C@H](N)C(=O)Nc2ccc(CCCN(C[C@H](O)[C@@H](O)[C@H](O)[C@H](O)CO)C[C@H](O)[C@@H](O)[C@H](O)[C@H](O)CO)cc2)c2c1CCCC2)NC(=O)c1nc(Cl)c(N)nc1N [Compound 127, 3,5-diamino-N—(N-(4-(4-((S)-2-amino-3-(4-(3-(bis((2S,3R,4R,5R)-2,3,4,5,6-pentahydroxyhexyl)amino)propyl)phenylamino)-3-oxopropyl)-5,6,7,8-tetrahydronaphthalen-1-yl)butyl)carbamimidoyl)-6-chloropyrazine-2-carboxamide]",0.0086

# Test system: Sheep MCC
# Experiment: Mucociliary clearance (MCC) studies in sheep
# Type: in vivo
# Settings: sheep, 8 hours post dose
# Description: The animal model that has been used most often to measure changes in MCC is the sheep model. The effect of compounds for enhancing mucociliary clearance (MCC) can be measured using an in vivo model described by Sabater et al., Journal of Applied Physiology, 1999, pp. 2191-2196, incorporated herein by reference.
# In these studies, adult sheep were restrained and nasally intubated with an endotracheal tube. Aerosolized test articles were administered over 10-15 minutes to sheep. Radiolabeled ^99mTc-sulfur colloid (TSC, 3.1 mg/mL; containing approximately 20 mCi) was then administered at a specified time four or eight hours after test article. The radiolabeled aerosol was administered through the endotracheal tube for about 5 minutes. The sheep were then extubated, and total radioactive counts in the lung were measured every 5 minutes for a 1-hour observation period. The rate of radiolabel clearance from the lung is representative of the MCC rate in the animal. The advantage of this system is that it closely simulates the human lung environment. The model also allows for the collection of simultaneous PK/PD information through plasma and urine sampling over the test period. There are also several techniques to measure the drug concentrations on the airway surface during the MCC measurements. These include the collection of exhaled breath condensates or a filter paper method to obtain ASL via bronchoscopy.
# The ovine model described above was used to evaluate the in vivo effects (efficacy/durability) of aerosol-delivered test agent on MCC. Treatments consisting of either 4 mL of test agent or test agent in combination with HS were tested. To determine if combining HS with test agent enhanced MCC, HS was administered immediately following test agent administration. Test solutions were aerosolized using a Raindrop nebulizer at a flowrate of eight liters per minute and connected to a dosimetry system consisting of a solenoid valve and a source of compressed air (20 psi). The deposited dose of drug in sheep lungs after an aerosol administration using the Raindrop nebulizer is estimated to be 8-15% of the dose. Using a Raindrop nebulizer, radiolabeled TSC was administered over approximately 3 minutes either 4 or 8 hours after drug treatment to evaluate efficacy/durability. Radioactive counts were measured in a central region in the right lung at 5 min intervals for one hour with a gamma camera. Three methods of analysis were utilized, 1) initial rate of clearance (slope) over the first 30 min fitted using linear regression 2) area under the curve for % clearance over time over one hour, and 3) the maximum clearance obtained in one hour.
row,Compound,duration of action on MCC vs. vehicle
1,"N=C(NCCCCc1ccc(C[C@@H](N)C(=O)Nc2ccc(CCCN(C[C@H](O)[C@@H](O)[C@H](O)[C@H](O)CO)C[C@H](O)[C@@H](O)[C@H](O)[C@H](O)CO)cc2)c2ccccc12)NC(=O)c1nc(Cl)c(N)nc1N [Compound 152, 3,5-diamino-N—(N-(4-(4-((R)-2-amino-3-(4-(3-(bis((2S,3R,4R,5R)-2,3,4,5,6-pentahydroxyhexyl)amino)propyl)phenylamino)-3-oxopropyl)naphthalen-1-yl)butyl)carbamimidoyl)-6-chloropyrazine-2-carboxamide]",enhanced duration action of MCC vs. vehicle

# Same assay, conditions: sheep, aerosol, 0.24 nmol/kg (3 μM), MCC at 8 h post-dose
Compound,AUC (% Cl-h),Initial Slope (8.0-8.5 h)
"N=C(NCCCCc1ccc(C[C@@H](N)C(=O)Nc2ccc(CCCN(C[C@H](O)[C@@H](O)[C@H](O)[C@H](O)CO)C[C@H](O)[C@@H](O)[C@H](O)[C@H](O)CO)cc2)c2ccccc12)NC(=O)c1nc(Cl)c(N)nc1N [Compound 152, 3,5-diamino-N—(N-(4-(4-((R)-2-amino-3-(4-(3-(bis((2S,3R,4R,5R)-2,3,4,5,6-pentahydroxyhexyl)amino)propyl)phenylamino)-3-oxopropyl)naphthalen-1-yl)butyl)carbamimidoyl)-6-chloropyrazine-2-carboxamide]",17.4* (4) % Cl-h,37.5* (4)
